Measurements as given in US20080241274A1 (ZIOPHARM Oncology, Inc., priority 2006, published 2008).
Read-outs that look alike come from different tables or passages of the source.

How the values were obtained:
[1] = system: series of cancer models (RENCA, DMBA, SK-OV-3, PC-3, A431, U 87, MCF-7, A 549); test: Series of cancer models in animals (overall statement); assay type: in vivo
Source text: (§1) The significant differences in pharmacodynamics and safety profile of indibulin make it a strong candidate for development as an anti-cancer drug.

[2] = system: un-biotinylated calf brain tubulin; details: G. Bacher, Cancer Res. 61, 2001; cited from earlier work
[3] = system: human prostate cancer xenograft (PC-3); test: PC-3 prostate cancer xenograft; assay type: in vivo; details: 180 mg/kg/d, d. 0, 7, 14, at sacrifice of control group animals
Source text: as §1

[4] = system: human vulvar squamous cell carcinoma xenograft (A431); test: A431 vulvar squamous cell carcinoma xenograft; assay type: in vivo; details: 27.5 mg/kg/d, 3×(3× week), at sacrifice of control group animals
Source text: as §1

[5] = system: U87 glioblastoma xenografts; test: U87 glioblastoma xenograft in nu/nu mice; assay type: in vivo, Human
Source text: 5×10^6 U87 glioblastoma cells were implanted subcutaneously in immunodeficient nu/nu mice. Treatment started when tumor weight was about 0.15 g (Day 0).
as §1

[6] = system: ovarian cancer with brain metastases; test: Phase I study, patient with ovarian cancer with brain metastases; assay type: in vivo, human; details: 400 mg BID continuous treatment; after 22 days of treatment; person
Source text: Treatment is ongoing. […] Treatment is ongoing.

[7] = system: DMBA induced mammary carcinoma; test: DMBA induced mammary carcinoma in rats; assay type: in vivo, Rat; details: 46.4 mg/kg/d, 2×(3× week), at sacrifice of control group animals
Source text: as §1

[8] = system: human ovarian xenograft (SK-OV-3); test: SK-OV-3 ovarian xenograft; assay type: in vivo; details: SKOV-3; 100 mg/kg/d, d. 0, 7, 14; at sacrifice of control group animals
Source text: as §1

SKOV3 (ovarian) = test: Monolayer assay (DNA content by propidium iodide), single agents and indibulin combinations, SKOV3; assay type: cell-based, human; details: Homo sapiens
Method: (§2) The monolayer assay determines the in vitro antitumor activity of test compounds and their capacity to inhibit survival and proliferation of established tumor cell lines. These effects can be determined by establishing the number of viable cells based on measuring the DNA content using propidium iodide. […] Between 5,000 and 10,000 cells were seeded in 96 well plates on Day 0 and the compounds were added 1 day later and incubated for 4 days. The activity was assessed by their IC50 and IC70 values.
(§3) Growth IC50 and IC70 values (Table 2) were determined using XLfit software package, and used to set the concentration ranges and drug ratios for the synergy detection part of the study.
(§4) Chou-Talalay median effect method was used to quantitatively characterize drug-drug interaction [Chou T. C. Theoretical basis, experimental design, and computerized simulation of synergism and antagonism in drug combination studies. Pharmacol Rev. 2006 September; 58(3):621-81]. […] Mixtures of the drugs at multiples of their single agent IC50's were prepared, as well as serial dilutions of the mixture. Additionally, single agent dose response was determined for the same concentration ranges as used for combination study.
(§5) The coefficient of interaction (CI(IC50)) at IC50 and coefficient of interaction under optimal experimental concentrations (CI(e)) were determined using CalcuSyn software package (Table 3, tests were performed in quadruplicate, mean values reported). Commonly, experimental values of CI<0.8 are considered synergistic, 0.8<CI<1.2 additive.

[9] = system: MCF-7 ER-positive breast cancer; test: Monolayer assay (DNA content by propidium iodide), single agents and indibulin combinations, MCF-7; assay type: cell-based, human
Method: as §2, §3, §4, §5

[10] = system: purified calf brain tubulin; test: Tubulin polymerization, calf brain tubulin; assay type: biochemical, bovine; details: FIG. 9, read-out: IC50 of inhibition of tubulin polymerization
Source text: (§6) Tubulin from neuronal tissue is post-translationally modified and the degree of modification increases during neuronal development. Calf brain neuronal tubulin and tubulin from other tissues differ in their post-translational modifications from that of adult bovine brain. […] Tubulin polymerization is given as % over DMSO control.

[11] = system: adult bovine brain tubulin; test: Tubulin polymerization, adult bovine brain tubulin; assay type: biochemical; details: bovine brain tubulin; at the highest dose tested
Source text: as §6

PC3 (prostate) = test: Monolayer assay (DNA content by propidium iodide), single agents and indibulin combinations, PC3; assay type: cell-based, human; details: for Combination IC50: PC3, concentration of the named drug in the combination
Method: as §2, §3, §4, §5

[12] = system: murine renal cell carcinoma RENCA; test: Murine renal cell carcinoma RENCA model; assay type: in vivo, Mouse
Method: 1.5×10^6 RENCA cells were injected into the subcapsular space of the kidney through a flank incision (Day 1). […] On Day 21 mice were sacrificed and weight and volume of primary tumors, weight and number of metastases of the lung and metastasis formation in the abdominal lymph nodes determined. […] TNP-470 has shown anti-tumor activity in different animal models and is well established for its use in RENCA.
as §1

[13] = system: axonal microtubules of rat pheochromocytoma (PC12) cells; test: Axonal microtubule immunostaining in NGF-differentiated PC12 cells; assay type: cell-based; details: PC12 neurites induced by NGF 5-6 days; 24 h treatment at 2×IC50 concentration
Source text: The outgrowth of neurites of PCl2 was induced by NGF for 5-6 days. […] Microtubules within the neurites, were visualized by immunostaining with an antibody recognizing acetylated (axonal) tubulin, leaving the cell bodies unstained.

A549 NSCLC = test: Monolayer assay (DNA content by propidium iodide), single agents and indibulin combinations, A549; assay type: cell-based, human; details: for IC50: Homo sapiens
Method: as §2, §3, §4, §5

[14] = MCF7, indibulin + 5-FU (5FU:indibulin 10.9:1), concentration of the named drug in the combination
[15] = MCF7, indibulin + paclitaxel (paclitaxel:indibulin 0.27:1), concentration of the named drug in the combination
[16] = MCF7, indibulin + tamoxifen (tamoxifen:indibulin 100:1), concentration of the named drug in the combination
[17] = MCF7, indibulin + vinorelbine (vinorelbine:indibulin 0.016:1), concentration of the named drug in the combination
[18] = A549, single agent (combination study)

O=C(Nc1ccncc1)C(=O)c1cn(Cc2ccc(Cl)cc2)c2ccccc12 [Indibulin, N-(pyridin-4-yl)-[1-(4-chlorobenzyl)-indol-3-yl]-glyoxylic acid amide]
Anti-tumor activity in all models ([1]; all models tested): strong and statistically significant anti-tumor activity | Neurotoxicity or loss of body weight ([1]; animals at efficacious doses): no signs of neurotoxicity or loss of body weight | Competition with 3H-colchicine binding [2]: does not compete | Growth Inhibition (%) [3]: 63% | Growth Inhibition (%) [4]: 63% | Growth Inhibition (%) ([5]; U87, 27.5 mg/kg/d, 3×(3× week), at sacrifice of control group animals): 88.8% | Growth of U87 glioblastoma xenografts (in words) ([5]; orally administered, s.c. tumors in nu/nu mice, FIG. 11): inhibits growth | Reduction of CA125 level from baseline [6]: 11% | Growth Inhibition (%) [7]: 99.5% | Growth Inhibition (%) [8]: 53% | IC50 (SKOV3 (ovarian); SK-OV-3, SKOV3, single agent (combination study), read-out: Single Agent IC50): 0.415 µg/mL | IC50 (SKOV3 (ovarian); SK-OV-3, SKOV3, indibulin + carboplatin, concentration of the named drug in the combination, read-out: Combination IC50): 0.029 µg/mL | IC50 (SKOV3 (ovarian); SK-OV-3, SKOV3, indibulin + cisplatin, concentration of the named drug in the combination, read-out: Combination IC50): 0.022 µg/mL | IC50 (SKOV3 (ovarian); SK-OV-3, SKOV3, indibulin + gemcitabine, concentration of the named drug in the combination, read-out: Combination IC50): 0.047 µg/mL | IC50 ([9]; Homo sapiens, MCF7, MCF7, single agent (combination study), read-out: Single Agent IC50): 0.013 µg/mL | Single Agent IC84 ([9]; MCF7, single agent (combination study)): 53 ng/mL | Combination IC50 [9, 14]: 0.005 µg/mL | Combination IC60 [9, 14]: 0.0028 µg/mL | Combination IC50 ([9]; MCF7, indibulin + doxorubicin, concentration of the named drug in the combination): 0.011 µg/mL | Combination IC50 [9, 15]: 0.004 µg/mL | Combination IC84 [9, 15]: 10 ng/mL | Combination IC50 [9, 16]: 0.004 µg/mL | Combination IC60 [9, 16]: 0.0064 µg/mL | Combination IC50 [9, 17]: 0.008 µg/mL | Combination IC60 [9, 17]: 0.006 µg/mL | IC50 [10]: ~0.25 µM | Inhibition of tubulin polymerization [11]: 25% | IC50 (PC3 (prostate); Homo sapiens, PC3, single agent (combination study), read-out: Single Agent IC50): 0.034 µg/mL | Combination IC50 (PC3 (prostate); indibulin + estramustine): 0.014 µg/mL | Combination IC50 (PC3 (prostate); indibulin + prednisolone): 0.012 µg/mL | Growth Inhibition (%) ([12]; RENCA, 17.5 mg/kg/d, d. 1-20(5× week), at sacrifice of control group animals): 90% | Number of lung metastases ([12]; oral, daily Day 1-20 (5×/week), Day 21): trend in reduction of number of lung metastases but was not statistically significant | Reduction in tumor volume and weight ([12]; oral, daily Day 1-20 (5×/week), primary tumors on Day 21, FIG. 12): statistically significant | Effect on axonal microtubules (acetylated tubulin immunostaining) [13]: did not affect axonal microtubules | Single Agent IC40 (A549 NSCLC; [18]): 0.071 µg/mL | Single Agent IC50 (A549 NSCLC; [18]): 0.054 µg/mL | Single Agent IC60 (A549 NSCLC; [18]): 0.129 µg/mL | Single Agent IC70 (A549 NSCLC; [18]): 0.095 µg/mL | Combination IC70 (A549 NSCLC; A549, indibulin + carboplatin (carboplatin:indibulin 303:1), concentration of the named drug in the combination): 0.027 µg/mL | Combination IC40 (A549 NSCLC; A549, indibulin + erlotinib (erlotinib:indibulin 208:1), concentration of the named drug in the combination): 0.021 µg/mL | Combination IC60 (A549 NSCLC; A549, indibulin + etoposide, concentration of the named drug in the combination): 0.068 µg/mL | IC50 (A549 NSCLC; A549, 96 h, A549, single agent, 4 days incubation, read-out: Growth IC50): 0.038 µg/mL | IC50 (A549 NSCLC; A549, A549, single agent (combination study), read-out: Single Agent IC50): 0.092 µg/mL | IC50 (A549 NSCLC; A549, A549, indibulin + carboplatin (carboplatin:indibulin 303:1), concentration of the named drug in the combination, read-out: Combination IC50): 0.011 µg/mL | IC50 (A549 NSCLC; A549, A549, indibulin + erlotinib (erlotinib:indibulin 208:1), concentration of the named drug in the combination, read-out: Combination IC50): 0.03 µg/mL
